# Values joined by “and” are separate entries in the source; they are usually repeats but may differ in a detail not shown here. Equal entries are not always repeated. Where two headings read alike, the source gives them in different places.
# Legend:
# flaviviruses = assay: Antiviral test of 2-dGlc; assay type: cell-based; settings: alone
# simian varicella virus = assay: Simian varicella virus infection in African green monkeys; assay type: in vivo, African green monkey; settings: for Viremia, Mean PFU: mg/kg/d i.v.
# Procedure: Fifteen African green monkeys were weighed and bled for clinical chemistry hematology baselines. […] Each of the 15 monkeys were infected with simian varicella virus by intratracheal inoculation of 3.7×10^4 plaque forming units (PFU) of simian varicella virus. […] Control monkeys, service as infection controls, received twice daily intravenous injections of phosphate buffered saline administered at 1.0 ml/kg of body weight. A second group of three monkeys received PALA at 50 mg/kg/day given by intravenous bolus injection into the saphenous vein. A third group was given a lower dose of PALA at 20 mg/kg/day administered in a similar manner. Acyclovir treatment was administered at a subeffective dose of 10 mg/kg/day also given as intravenous bolus injection into the saphenous vein. A fifth group of three monkeys received a combined treatment of PALA at 20 mg/kg/day and acyclovir at 10 mg/kg/day. The drugs were injected into opposite veins at each time of treatment.
# Drug solutions were prepared daily prior to treatment. Treatment was begun 24 hours after virus inoculation. PALA was provided as a solution in vials containing 5 ml at 100 mg/ml. The contents of three vials were pooled and seven ml of the pooled drug diluted to 28 ml to give 25 mg/ml. Five ml of this solution was diluted to […] to give 10 mg/ml. Drug was administered twice daily resulting in total daily doses of 50 or 20 mg/kg/day.
# Acyclovir received as a gift from Burroughs Wellcome was weighed out as a 200 mg quantity. This was diluted with 5 ml of PBS and pH adjusted to 11.0 with 1N NaOH to effect solution. This was subsequently diluted to 40 ml to give a solution of 5 mg/ml and sterilized by filtration. Again, 1 ml per kg of body weight was administered by intravenous injection twice daily resulting in a dose of 10 mg/kg/day.
# The clinical course of simian varicella infection was followed by collection of 2 ml of blood in heparin on day 2, 5, 7, 9 and 11 post-inoculation. The lymphocytes in the 2 ml specimen were separated on ficol-hypaque gradients, washed twice in RPMI-1640 medium and suspended in 10 ml of this medium. The 10 ml volume was divided between two 25 cm^2 tissue culture flasks seeded 24 hours earlier with Vero cells. After 5-7 days incubation, the culture fluids were discarded from the flasks and the cell monolayer fixed with methanol and stained with methylene blue-basic fuchsin. When dried the number of plaques in each flask were counted and the mean number of plaques between the two paired flasks were determined and expressed as a quantitation of viremia per ml of blood.
# Rash was evaluated daily using a subjective scoring of severity from ± to 4+. A ± score indicates less than 10 vesicles seen on the skin of the monkey while 4+ indicates numerous vesicles covering the majority of the body surface. General clinical condition was assessed daily and anorexia noted by counting the number of food biscuits consumed daily. Monkeys dying during the course of the experiment were necropsied and simian varicella was determined as the cause of death based on the typical pathology. Baseline hematology and clinical chemistry tests were performed at three days before virus inoculation and again on day 0, immediately before virus inoculation. Following inoculation of simian varicella virus blood was taken for hematology and clinical chemistry tests at 3, 7, 9 and 11 days.
# At 14 and 21 days after virus inoculation, blood was taken and the serum separated for quantitation of antibody. Antibody titers were obtained in a serum neutralization test employing a plaque reduction assay. The antibody titer expressed is the dilution of serum resulting in an 80 percent reduction in the number of plaques from that number occurring in control cultures without added serum.
# herpesvirus = settings: cited from earlier work
# [1] = tested on: respiratory syncytial virus (RSV); assay: RSV infection in cotton rats, lung titre; assay type: in vivo, cotton rat
# From the text: 1. 50 to 100 g cotton rats of either sex inoculated i.n. with RS A2 (pool 8-28-92) on day 0.
# 2. On day +1 animals were given placebo or PALA as follows:
# 3. All animals killed on day +4 and their lungs tested for RSV levels.
# [2] = PALA 50, rifampicin 10 or both, mg/kg/day i.v.
# [3] = day 10, PALA 50, rifampicin 10 mg/kg/d or both
structure (smiles),measurement,setting,value
"CO[C@H]1/C=C/O[C@@]2(C)Oc3c(C)c(O)c4c(O)c(c(/C=N/N5CCN(C)CC5)c(O)c4c3C2=O)NC(=O)/C(C)=C\C=C\[C@H](C)[C@H](O)[C@@H](C)[C@@H](O)[C@@H](C)[C@H](OC(C)=O)[C@@H]1C [Rifampicin, reference compound]",lesion development,vaccinia virus; [2],appreciable skin lesions
same,virus titers in skin,vaccinia virus; [2],Higher titers
same,Weight,"vaccinia virus; day 0, PALA 50, rifampicin 10 mg/kg/d or both",5.2 kg and 2.6 kg and 4.2 kg
same,"Vaccinia Lesion Score, group mean","vaccinia virus; day 3, PALA 50, rifampicin 10 mg/kg/d or both",0.4
same,"Vaccinia Lesion Score, group mean","vaccinia virus; day 6, PALA 50, rifampicin 10 mg/kg/d or both",1.2
same,Vaccinia Lesion Score,"vaccinia virus; day 6, PALA 50, rifampicin 10 mg/kg/d or both, per monkey",1.6 and 0.7 and 1.4
same,"Vaccinia Lesion Score, group mean","vaccinia virus; day 7, PALA 50, rifampicin 10 mg/kg/d or both",1.7
same,"Vaccinia Lesion Score, group mean","vaccinia virus; day 8, PALA 50, rifampicin 10 mg/kg/d or both",1.3
same,"Vaccinia Lesion Score, group mean","vaccinia virus; day 9, PALA 50, rifampicin 10 mg/kg/d or both",1.2
same,"Vaccinia Lesion Score, group mean",vaccinia virus; [3],1.6
same,Weight,vaccinia virus; [3],4.6 kg and 2.4 kg and 3.8 kg
same,"Vaccinia Lesion Score, group mean","vaccinia virus; day 13, PALA 50, rifampicin 10 mg/kg/d or both",0.9
same,Weight,"vaccinia virus; day 14, PALA 50, rifampicin 10 mg/kg/d or both",4.6 kg and 2.4 kg and 3.8 kg
same,Weight,"vaccinia virus; day 21, PALA 50, rifampicin 10 mg/kg/d or both",4.8 kg and 2.6 kg and 4.0 kg
same,signs of toxicity,vaccinia virus; except one monkey at PALA 125 mg/kg bolus,No appreciable signs of toxicity
same,Titer of vaccinia virus in skin biopsy,"vaccinia virus; head prints day 6, PALA 50, rifampicin 10 mg/kg/d or both",1.5 × 10^7 PFU/ml and 1.2 × 10^5 PFU/ml and 1.1 × 10^5 PFU/ml
"O=CC[C@@H](O)[C@H](O)[C@H](O)CO [2-dGlc, 2-deoxy-D-glucose]",effect against flaviviruses,flaviviruses,no effect
"Nc1nc2c(ncn2COCCO)c(=O)[nH]1 [Acyclovir, reference compound]",effect on rash / viremia,"simian varicella virus; PALA 20, Acyclovir 10 or both, mg/kg/day i.v.",no effect in moderating viremia
same,thrombocytopenia on day 11,simian varicella virus; PALA 50 or Acyclovir 10 mg/kg/day,two monkeys
same,"Viremia, Mean PFU","simian varicella virus; day 7, PALA 20, Acyclovir 10 or both",> 1000 PFU and 504 PFU
same,"Viremia, Mean PFU","simian varicella virus; day 11, PALA 20, Acyclovir 10 or both",0 PFU
"O=C(O)CP(=O)(O)O [PAA, phosphonoacetic acid, reference compound]",antiherpesvirus activity,herpesvirus,selective antiherpesvirus agent
"NC(=O)c1ncn([C@@H]2O[C@H](CO)[C@@H](O)[C@H]2O)n1 [RIBAVIRIN, reference compound]",RSV lung titre,"[1]; ribavirin 40 mg/kg, alone or + PALA 3 mg/kg, individual animal",3.4 LOG10 and 2.9 LOG10 and 3.5 LOG10
same,"RSV lung titre, mean (SD)","[1]; ribavirin 40 mg/kg/day, alone or + PALA 3",3.3 (0.3) LOG10 /G Lung

# — patent US5491135A (priority 1993, dated 1996)
